In brackets after ≈: the same amount, converted by molar mass.
Assays:
[1] = tested on: Mycobacterium tuberculosis; assay: Antimycobacterial activity against multidrug-resistant Mycobacterium tuberculosis clinical isolate HD3 assessed as inhibition of bacterial growth incubated for 7 days by microplate alamar blue assay; type: functional; conditions: Clinical isolate HD3, 168 h, time 7 day
[2] = tested on: Mycobacterium tuberculosis; assay: Antimycobacterial activity against multidrug-resistant Mycobacterium tuberculosis clinical isolate HD1 assessed as inhibition of bacterial growth incubated for 7 days by microplate alamar blue assay; type: functional; conditions: Clinical isolate HD1, 168 h, time 7 day
[3] = tested on: Mycobacterium tuberculosis; assay: Antimycobacterial activity against multidrug-resistant Mycobacterium tuberculosis clinical isolate HD5 assessed as inhibition of bacterial growth incubated for 7 days by microplate alamar blue assay; type: functional; conditions: Clinical isolate HD5, 168 h, time 7 day
[4] = tested on: Mycobacterium tuberculosis; assay: Antimycobacterial activity against multidrug-resistant Mycobacterium tuberculosis clinical isolate HD2 assessed as inhibition of bacterial growth incubated for 7 days by microplate alamar blue assay; type: functional; conditions: Clinical isolate HD2, 168 h, time 7 day
[5] = tested on: Mycobacterium tuberculosis; assay: Antimycobacterial activity against multidrug-resistant Mycobacterium tuberculosis clinical isolate HD4 assessed as inhibition of bacterial growth incubated for 7 days by microplate alamar blue assay; type: functional; conditions: Clinical isolate HD4, 168 h, time 7 day
[6] = tested on: Mycobacterium tuberculosis; assay: Antimycobacterial activity against rifampin resistant Mycobacterium tuberculosis H37Rv assessed as inhibition of bacterial growth incubated for 7 days by microplate alamar blue assay; type: functional; conditions: 168 h, time 7 day
[7] = Inhibition of Mycobacterium tuberculosis DprE1 C387A mutant expressed in Escherichia coli BL21 DE3 assessed as formation of resorufin using FPR as substrate incubated for 10 mins by Amplex Red dye microplate assay
[8] = Inhibition of Mycobacterium tuberculosis DprE1 C387S mutant expressed in Escherichia coli BL21 DE3 assessed as formation of resorufin using FPR as substrate incubated for 10 mins by Amplex Red dye microplate assay
[9] = tested on: Mycobacterium tuberculosis; assay: Antimycobacterial activity against Mycobacterium tuberculosis DprE1 C387S assessed as inhibition of bacterial growth incubated for 7 days by microplate alamar blue assay; type: functional; conditions: time 7 day
[10] = Inhibition of Mycobacterium tuberculosis DprE1 K418A mutant expressed in Escherichia coli BL21 DE3 assessed as formation of resorufin using FPR as substrate incubated for 10 mins by Amplex Red dye microplate assay
[11] = tested on: Mycobacterium tuberculosis; assay: Antimycobacterial activity against rifampin resistant Mycobacterium tuberculosis H37Rv assessed as reduction in bacterial colony forming units at 20 times MIC concentration measured after 21 days by time kill assay; type: functional; conditions: time 21 day
[12] = Inhibition of Mycobacterium tuberculosis DprE1 Y314A mutant expressed in Escherichia coli BL21 DE3 assessed as formation of resorufin using FPR as substrate incubated for 10 mins by Amplex Red dye microplate assay

Compound | MIC [1] | MIC [2] | MIC [3] | MIC [4] | MIC [5] | MIC [6] | IC50 [7] | IC50 [8] | MIC [9] | IC50 [10] | Activity [11] | IC50 [12]
O=C(NC(=O)c1ccsc1NC(=O)c1nc2ccccc2s1)OCC1CCC1 | 1.88 µM (≈ 0.781 µg/mL) | 1.88 µM (≈ 0.781 µg/mL) | 3.76 µM (≈ 1.56 µg/mL) | 3.76 µM (≈ 1.56 µg/mL) | 3.76 µM (≈ 1.56 µg/mL) | 6.01 µM (≈ 2.5 µg/mL) |  |  |  |  |  | 
COc1nc2ccc(Br)cc2cc1[C@@H](c1ccccc1)[C@@](O)(CCN(C)C)c1cccc2ccccc12 [BEDAQUILINE] | 0.14 µM (≈ 0.0778 µg/mL) | 0.07 µM (≈ 0.0389 µg/mL) | 0.07 µM (≈ 0.0389 µg/mL) | 0.29 µM (≈ 0.161 µg/mL) | 0.58 µM (≈ 0.322 µg/mL) |  |  |  |  |  |  | 
NNC(=O)c1ccncc1 [ISONIAZID] | 9.11 µM (≈ 1.25 µg/mL) | 18.2 µM (≈ 2.5 µg/mL) | 36.5 µM (≈ 5 µg/mL) | 36.5 µM (≈ 5 µg/mL) | 18.2 µM (≈ 2.5 µg/mL) |  |  |  |  |  |  | 
CC(=O)c1ccc(C(=O)Nc2sccc2C(=O)NC(=O)OCC2CC2)cc1 |  |  |  |  |  |  | 3.33 µM | 3.98 µM |  |  |  | 
CO[C@H]1/C=C/O[C@@]2(C)Oc3c(C)c(O)c4c(O)c(c(/C=N/N5CCN(C)CC5)c(O)c4c3C2=O)NC(=O)/C(C)=C\C=C\[C@H](C)[C@H](O)[C@@H](C)[C@@H](O)[C@@H](C)[C@H](OC(C)=O)[C@@H]1C [RIFAMPIN] | 0.95 µM (≈ 0.782 µg/mL) | 1.9 µM (≈ 1.56 µg/mL) | 3.82 µM (≈ 3.14 µg/mL) | 3.82 µM (≈ 3.14 µg/mL) | 1.9 µM (≈ 1.56 µg/mL) | 1.13 µM (≈ 0.93 µg/mL) |  |  | 0.35 µM (≈ 0.288 µg/mL) |  |  | 
CCOC(=O)NC(=O)c1ccsc1NC(=O)c1nc2ccccc2s1 | 2.07 µM (≈ 0.777 µg/mL) | 4.15 µM (≈ 1.56 µg/mL) | 8.33 µM (≈ 3.13 µg/mL) | 8.33 µM (≈ 3.13 µg/mL) | 8.33 µM (≈ 3.13 µg/mL) | 3.32 µM (≈ 1.25 µg/mL) | 44 µM | 5.79 µM | 6.65 µM (≈ 2.5 µg/mL) | 65 µM | 3.5 log10CFU/ml | 0.11 µM
O=C(NC(=O)c1ccsc1NC(=O)c1nc2ccccc2s1)OCC1CC1 | 0.97 µM (≈ 0.389 µg/mL) | 1.94 µM (≈ 0.779 µg/mL) | 1.94 µM (≈ 0.779 µg/mL) | 3.88 µM (≈ 1.56 µg/mL) | 1.94 µM (≈ 0.779 µg/mL) | 1.57 µM (≈ 0.63 µg/mL) | 0.069 µM | 0.059 µM | 1.57 µM (≈ 0.63 µg/mL) | 8.93 µM | 3.5 log10CFU/ml | 0.029 µM

Reference: ChEMBL document CHEMBL5143519, “Exploring disordered loops in DprE1 provides a functional site to combat drug-resistance in Mycobacterium strains” (Eur J Med Chem, 2022)
